The experiment deals with murine Colo-26 tumors. Briefly: MR imaging of Colo-26 tumors 30 min after P-PDT. Format: in vivo. Particulars: P-PDT: 0.4 μmol/kg HPPH i.v., 24 h later 6 μmol/kg VBBO i.v., 3 h later 500 J/cm^2 at 619 nm; imaged 30 min after P-PDT; especially in the treated tumor. Here is the method:
FIG. 1 is a set of MR images of Colo-26 tumors taken 30 minutes after P-PDT to the tumor on the left of each image.
FIG. 1 illustrates the response of the vasculature in murine Colo-26 tumors to P-PDT. […] In this case, P-PDT involved i.v. injection of 0.4 μmol/kg HPPH (2-[1-hexyl-oxyethyl]-2-devinyl pyropheophoribde-a), followed 24 h later by i.v. injection of 6 μmol/kg VBBO (Victoria Blue-BO), followed 3 h later by local exposure of the tumor to 500 J/cm^2 of light at a wavelength of 619 nm. In Frame A, one can observe that the T2 weighted MRI image of the P-PDT treated tumor is markedly brighter than the control, which is believed to be due to increased water content because of enhanced edema and permeability in that tumor. Image intensity is further heightened by carbogen breathing as shown in Frame B of FIG. 1. […] Changes in signal intensity originate with the magnetic susceptibility of hemoglobin and are dependent on its oxygenation status. Oxyhemoglobin is diamagnetic, while deoxyhemoglobin is paramagnetic. The magnetic susceptibility differences between deoxyhemoglobin and surrounding tissue water create local field gradients that cause phase dispersion of nearby water protons, resulting in a loss of MR signal intensity. […]

Each structure is given as a SMILES string.

Turning to `CCCCCCOC(C)c1c(C)c2cc3nc(c4c5[nH]c(cc6nc(cc1[nH]2)C(C)=C6CC)c(C)c5C(=O)C4)[C@@H](CCC(=O)O)[C@@H]3C` (stereo partly shown) [HPPH, 2-[1-hexyl-oxyethyl]-2-devinyl pyropheophoribde-a], the “increase in MR image intensity during carbogen breathing” value is “up to 40%”.

These data come from patent publication US20040010218A1, “Photodynamic therapy for the enhancement of vascular permeability to aid in drug delivery to diseased tissues” (priority 2002, published 2004).
